Laboratory results taken from publication PMC10165273, “Itch receptor MRGPRX4 interacts with the receptor activity–modifying proteins” (The Journal of Biological Chemistry, 2023).
“And” between values parts separate entries of the source, which are not always exact repeats. Equal entries are not always repeated.

Columns and labels:
Type in all cases: cell-based
MRGPRX4 + RAMP2 = molecular target: T1, MRGPRX4 + RAMP2 (Homo sapiens, UniProt Q96LA9); experiment: IP1 accumulation, MRGPRX4 coexpressed with RAMP2; set-up: key to response to agonist, X4:ramp2.I:2: % IP1: mock-transfected unstimulated = 0%, fully stimulated MRGPRX4 = 100%; key to IP1 Basal / response to agonist, X4:ramp2.I:0.25 / response to agonist, X4:ramp2.I:0.5 / response to agonist, X4:ramp2.I:1: % IP1; unstimulated mock = 0%, fully stimulated MRGPRX4 = 100%; conditions: Figure 4c-f, agonist 100µM, MRGPRX4 = 100
T1 construct: expressed in transfected cells; host or cells: HEK293T

MRGPRX4 + RAMP3 [1] = molecular target: T2, MRGPRX4 + RAMP3 (Homo sapiens, UniProt Q96LA9); experiment: IP1 accumulation, MRGPRX4 coexpressed with RAMP3; set-up: key to IP1 Basal / response to agonist, X4:ramp3.I:0.25 / response to agonist, X4:ramp3.I:0.5 / response to agonist, X4:ramp3.I:1: % IP1; unstimulated mock = 0%, fully stimulated MRGPRX4 = 100%; conditions: Figure 4c-f, agonist 100µM, MRGPRX4 = 100
T2 construct: expressed in transfected cells; host or cells: HEK293T

MRGPRX4 + RAMP3 [2] = molecular target: T2, MRGPRX4 + RAMP3; experiment: IP1 accumulation, MRGPRX4 coexpressed with RAMP3; set-up: key: % IP1; unstimulated mock = 0%, fully stimulated MRGPRX4 = 100%; conditions: Figure 4c-f; agonist 100µM; X4:ramp3 1:2; MRGPRX4 = 100

T2 sequence (Q96LA9 whole entry): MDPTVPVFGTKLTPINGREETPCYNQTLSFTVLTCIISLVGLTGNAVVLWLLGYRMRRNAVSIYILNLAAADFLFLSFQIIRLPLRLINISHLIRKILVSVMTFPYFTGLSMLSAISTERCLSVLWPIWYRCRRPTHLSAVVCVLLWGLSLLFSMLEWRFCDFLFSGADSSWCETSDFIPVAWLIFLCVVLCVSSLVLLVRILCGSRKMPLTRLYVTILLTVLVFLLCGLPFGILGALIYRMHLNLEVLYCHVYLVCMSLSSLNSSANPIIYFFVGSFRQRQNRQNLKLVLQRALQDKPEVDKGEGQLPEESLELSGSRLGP
T1 sequence (Q96LA9 whole entry): as above

`C[C@H](CCC(=O)NCCS(=O)(=O)O)[C@H]1CC[C@H]2[C@@H]3CC[C@@H]4C[C@H](O)CC[C@]4(C)[C@H]3C[C@H](O)[C@]12C` [TDCA, Taurodeoxycholic acid] was tested, and the “response to agonist, X4:ramp2.I:0.25” value (MRGPRX4 + RAMP2; X4:ramp2 1:0.25) was 76.6313 and 76.3781, the “response to agonist, X4:ramp2.I:0.5” value (MRGPRX4 + RAMP2; X4:ramp2 1:0.5) was 59.1022 and 61.5718 and the “response to agonist, X4:ramp2.I:1” value (MRGPRX4 + RAMP2; X4:ramp2 1:1) was 39.1806 and 35.15. The “response to agonist, X4:ramp2.I:2” value (MRGPRX4 + RAMP2; X4:ramp2 1:2) was 12.332 and 15.0971, the “response to agonist, X4:ramp3.I:0.25” value (MRGPRX4 + RAMP3 [1]; X4:ramp3 1:0.25) was 75.8743 and 69.8198 and the “response to agonist, X4:ramp3.I:0.5” value (MRGPRX4 + RAMP3 [1]; X4:ramp3 1:0.5) was 71.1633 and 71.0507. For the same molecule, the “response to agonist, X4:ramp3.I:1” value (MRGPRX4 + RAMP3 [1]; X4:ramp3 1:1) was 68.5255 and 51.1881 and the “response to agonist, X4:ramp3.I:2” value (MRGPRX4 + RAMP3 [2]) was 51.7108 and 61.6065.
